Measurements as given in PubChem BioAssay AID256 (DTP/NCI, 2004).
Where “and” joins values, the source holds several entries; their conditions need not be identical. Equal entries are not always repeated. Inconclusive results and toxic doses are left out.

System: CD2F1 mice, L1210 leukemia ip, survival T/C
Test: NCI In Vivo Anticancer Drug Screen. Data for tumor model L1210 Leukemia (intraperitoneal) in CD2F1 (CDF1) mice
Details: endpoint: mean survival time, higher = longer survival
Procedure, shortened: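 Antitumor effect is scored in animals hosting a serially transplanted tumor. Values compare compound-dosed animals against vehicle-only controls as a simple quotient.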

[1] = dose: 50.0 mg/kg/injection, schedule: Q04DX002 (ip), vehicle: saline with Tween-80
[2] = dose: 100.0 mg/kg/injection, schedule: Q04DX002 (ip), vehicle: saline with Tween-80
[3] = dose: 200.0 mg/kg/injection, schedule: Q04DX002 (ip), vehicle: saline with Tween-80
[4] = dose: 100.0 mg/kg/injection, schedule: Q01DX009 (ip), vehicle: saline with Tween-80
[5] = dose: 200.0 mg/kg/injection, schedule: Q01DX009 (ip), vehicle: saline with Tween-80
[6] = dose: 400.0 mg/kg/injection, schedule: Q01DX009 (ip), vehicle: saline with Tween-80
[7] = dose: 100.0 mg/kg/injection, schedule: Q04DX003 (ip), vehicle: saline with Tween-80
[8] = dose: 200.0 mg/kg/injection, schedule: Q04DX003 (ip), vehicle: saline with Tween-80
[9] = dose: 400.0 mg/kg/injection, schedule: Q04DX003 (ip), vehicle: saline with Tween-80
[10] = dose: 400.0 mg/kg/injection, schedule: Q04DX002 (ip), vehicle: saline with Tween-80
[11] = dose: 50.0 mg/kg/injection, schedule: Q01DX009 (ip), vehicle: saline

Cc1ccc(NC(=S)NC(=O)/C=C/c2ccccc2)cc1Cl
T/C [1]: 95 % of control and 97 % of control | T/C [2]: 91 % of control and 97 % of control | T/C [3]: 93 % of control and 94 % of control

Cc1ccc(S(=O)(=O)/C=C(/SC#N)C2CCCCC2)cc1
T/C [4]: 96 % of control | T/C [5]: 100 % of control | T/C [6]: 102 % of control

O=C(OCC1OC(n2cnc3c(=S)nc[nH]c32)C(OC(=O)c2ccc([N+](=O)[O-])cc2)C1OC(=O)c1ccc([N+](=O)[O-])cc1)c1ccc([N+](=O)[O-])cc1 (stereo not given)
T/C (dose: 132.0 mg/kg/injection, schedule: Q01DX009 (ip), vehicle: saline with Tween-80): 157 % of control

Cc1ccc2c(C)cc(=O)[nH]c2c1
T/C [7]: 95 % of control | T/C [8]: 95 % of control | T/C [9]: 101 % of control

C/C=C/C=C/C(=O)n1nnn(/C=C/C=C/C)c1=O
T/C [1]: 98 % of control | T/C [2]: 91 % of control | T/C [3]: 95 % of control | T/C [10]: 98 % of control

O=C(/C=C/c1ccccc1)Nc1cccc2ccccc12
T/C [2]: 90 % of control | T/C [3]: 105 % of control | T/C [10]: 94 % of control

COc1ccc(C(=O)CC(C(=O)O)c2ccc3c(c2)OCO3)cc1OC (stereo not given)
T/C [7]: 101 % of control | T/C [8]: 101 % of control | T/C [9]: 101 % of control

C/C(=N\NC(=O)c1ccccc1)c1ccccc1
T/C [4]: 98 % of control | T/C [5]: 106 % of control | T/C [6]: 102 % of control

CC1C2CCC(C2)C1CO (stereo not given)
T/C [11]: 102 % of control | T/C (dose: 100.0 mg/kg/injection, schedule: Q01DX009 (ip), vehicle: saline): 98 % of control | T/C (dose: 200.0 mg/kg/injection, schedule: Q01DX009 (ip), vehicle: saline): 104 % of control

CSc1ccccc1C(=O)O
T/C [7]: 102 % of control and 95 % of control | T/C [8]: 96 % of control and 101 % of control | T/C [9]: 102 % of control and 101 % of control

COc1cc2cc[n+]3c(C)c4cc5c(cc4cc3c2cc1OC)OCO5 (tested in a mixture with another compound)
T/C (dose: 25.0 mg/kg/injection, schedule: Q01DX009 (ip), vehicle: saline with Tween-80): 120 % of control | T/C (dose: 37.5 mg/kg/injection, schedule: Q01DX009 (ip), vehicle: saline with Tween-80): 94 % of control | T/C (dose: 37.5 mg/kg/injection, schedule: Q01DX009 (ip), vehicle: saline): 108 % of control | T/C [11]: 106 % of control | T/C (dose: 100.0 mg/kg/injection, schedule: Q04DX003 (ip), vehicle: saline): 121 % of control | T/C (dose: 200.0 mg/kg/injection, schedule: Q04DX003 (ip), vehicle: saline): 93 % of control

CN(C(=O)c1cccnc1)c1ccccc1
T/C [4]: 98 % of control | T/C [5]: 101 % of control | T/C [6]: 103 % of control

OCc1ccc(O)cc1
T/C (dose: 100.0 mg/kg/injection, schedule: Q04DX003 (ip), vehicle: other): 100 % of control | T/C (dose: 200.0 mg/kg/injection, schedule: Q04DX003 (ip), vehicle: other): 95 % of control | T/C (dose: 400.0 mg/kg/injection, schedule: Q04DX003 (ip), vehicle: other): 94 % of control

COc1cc(NC(C)CCCN)c2ncccc2c1 (stereo not given)
T/C (dose: 12.5 mg/kg/injection, schedule: Q01DX009 (ip), vehicle: saline sonified): 102 % of control | T/C (dose: 12.5 mg/kg/injection, schedule: Q04DX003 (ip), vehicle: saline with Tween-80): 104 % of control | T/C (dose: 25.0 mg/kg/injection, schedule: Q01DX009 (ip), vehicle: saline sonified): 97 % of control | T/C (dose: 25.0 mg/kg/injection, schedule: Q04DX003 (ip), vehicle: saline with Tween-80): 93 % of control | T/C (dose: 50.0 mg/kg/injection, schedule: Q01DX009 (ip), vehicle: saline sonified): 102 % of control | T/C (dose: 50.0 mg/kg/injection, schedule: Q04DX003 (ip), vehicle: saline with Tween-80): 101 % of control

COc1c(OC(C)=O)ccc(/C=C2\COC(C)=N2)c1[N+](=O)[O-]
T/C [7]: 96 % of control | T/C [8]: 102 % of control | T/C [9]: 92 % of control
